Values of other authors, collected in patent US10076496B2, “Engineering of polymer-stabilized nanoparticles for drugs with Log P values below 6 by controlled antisolvent precipitation” (THE CHINESE UNIVERSITY OF HONG KONG, priority 2011, dated 2018).

Log P: 7.38
SMILES: CC(=O)O[C@H]1C(=O)[C@@]2(C)[C@H]([C@H](OC(=O)c3ccccc3)[C@]3(O)C[C@H](OC(=O)[C@H](O)[C@@H](NC(=O)c4ccccc4)c4ccccc4)C(C)=C1C3(C)C)[C@]1(OC(C)=O)CO[C@@H]1C[C@@H]2O [paclitaxel]
